Source: patent US5872104A, “Combinations and methods for reducing antimicrobial resistance” (Oridigm Corporation, priority 1994, dated 1999)
Read-outs that look alike come from different tables or passages of the source.

Legend:
[1] = test system: N- and O-methylation of mRNA; conditions: 100 μM; cited from earlier work
human liver SAHH = conditions: cited from earlier work
hamster liver SAHH = conditions: cited from earlier work
[2] = test system: SAM-dependent methylations; conditions: cited from earlier work
[3] = test system: S. aureus 27660 (erythromycin resistant); assay type: cell-based; conditions: for enhanced killing with erythromycin: in combination with erythromycin
polyamine biosynthesis = conditions: cited from earlier work
methyl transfer from SAM = conditions: cited from earlier work
cytotoxicity = conditions: cited from earlier work
SAHH hydrolase = conditions: cited from earlier work
[4] = test system: 28S rRNA, 18S rRNA and tRNA; conditions: NPA 10 μM; c^3 -NPA 10 μM; c^3 -Ari 100 μM; cited from earlier work
[5] = test system: vaccinia virion mRNA(guanine-7)methyltransferase; conditions: 100 μM; cited from earlier work
RNA methyltransferase = conditions: cited from earlier work
Mycobacterium leprae = conditions: 12 μg/mouse every 12 hours, 15 doses, local; cited from earlier work
[6] = test system: transfer and ribosomal RNA (tRNA and rRNA) methylases; conditions: cited from earlier work
[7] = test system: RNA methyltransferase from Streptomyces antibioticus; conditions: 100 μM; cited from earlier work
RNA methylation = conditions: cited from earlier work
[8] = test system: cell transformation by Rous sarcoma virus; conditions: concentrations not toxic to normal cells; cited from earlier work
[9] = sc., rats; cited from earlier work
[10] = test system: porcine liver tRNA methyltransferase; conditions: cited from earlier work
poly(A)-RNA methylation = conditions: inhibitor level that still permitted cell growth; cited from earlier work
[11] = not told; cited from earlier work
[12] = test system: nucleosidase enzymes responsible for SAH metabolism; conditions: cited from earlier work
tRNA methylases = conditions: cited from earlier work
[13] = test system: vaccinia virion mRNA(nucleoside-2'-)methyltransferase; conditions: cited from earlier work
rRNA processing = conditions: cited from earlier work
[14] = iv., mice; cited from earlier work
[15] = test system: tRNA methylases isolated from E. coli; conditions: cited from earlier work
[16] = test system: mature rRNA in Novikoff hepatoma cells; conditions: cited from earlier work
SAH hydrolase = conditions: cited from earlier work
SAM pools in L1210 cells = conditions: cited from earlier work
SAM synthetase = conditions: cited from earlier work
L1210 cells [17] = assay: Growth inhibition in L1210 cell culture; assay type: cell-based
L1210 cells [18] = conditions: absence of polyamine depletion; cited from earlier work
cell culture = conditions: cited from earlier work
[19] = dogs; cited from earlier work
malarial growth = conditions: read-out: ED50 (the source's name); cited from earlier work
vaccinia virus = conditions: cited from earlier work
[20] = test system: vesicular stomatitis virus; conditions: primary rabbit kidney cells; cited from earlier work
human retrovirus = conditions: cited from earlier work
rat leukemia (BNML) = conditions: nitrous oxide plus cycloleucine; cited from earlier work
[21] = test system: internal m^6 A of late SV40 mRNA; conditions: 0.5 mg/ml; cited from earlier work
[22] = test system: tumor-derived methionine adenosyltransferases; conditions: cited from earlier work
[23] = test system: S. aureus 6538 (erythromycin susceptible); assay: Erythromycin disk susceptibility with inhibitor pre-mixed in agar; assay type: cell-based; conditions: inhibitor pre-mixed with BHIA or TSA, with erythromycin (FIG. 2)
glutathione = conditions: ip.; 4.5 mmol/kg buthionine sulfoximine and […] diethyl maleate; cited from earlier work
SAM-synthetase = conditions: in vivo; cited from earlier work
[24] = test system: rat SAM synthetase M-2 isozyme; conditions: cited from earlier work
[25] = test system: rat SAM synthetase M-1 isozyme; conditions: cited from earlier work
murine L929 SAHH = conditions: cited from earlier work
adenosine deaminase = conditions: cited from earlier work
viruses = conditions: cited from earlier work

Compound: Nc1nccc2c1ncn2[C@@H]1O[C@H](CO)[C@@H](O)[C@H]1O [3-deazaadenosine]
- inhibition of N- and O-methylation of mRNA [1]: 31-83%

Compound: Nc1ncnc2c1ncn2[C@@H]1O[C@H](CO)[C@@H](O)[C@H]1Cl [CLA, 2'-deoxy-2'-chloroadenosine]
- inhibition (human liver SAHH): inhibitor
- inhibition (hamster liver SAHH): inhibitor

Compound: CSC[C@H]1O[C@@H](n2cnc3c(N)ncnc32)[C@H](O)[C@@H]1O [Methylthioadenosine, 5'-Deoxy-5'-(methylthio)adenosine]
- inhibition of SAM-dependent methylations [2]: inhibitor of several SAM-dependent methylations
- enhanced killing with erythromycin [3]: enhanced the killing
- inhibition of spermine and spermidine synthesis (polyamine biosynthesis): inhibitor of spermine and spermidine synthesis
- inhibition (methyl transfer from SAM): effective inhibitors

Compound: Nc1nccc2c1ncn2[C@@H]1C=C(CO)[C@@H](O)[C@H]1O [3-Deazaneplanocin A, 3-deazaneplanocin A]
- cytotoxicity relative to neplanocin A (cytotoxicity): significantly less cytotoxic than neplanocin A
- antiviral activity and cytotoxicity vs first generation (SAHH hydrolase): retained antiviral activity and considerably lower cytotoxicity than their parent first generation inhibitors
- enhanced killing with erythromycin [3]: enhanced the killing
- methylation of 28S rRNA, 18S rRNA and tRNA [4]: inhibit the methylation of 28S rRNA, 18S rRNA and tRNA

Compound: CNc1ncnc2c1ncn2[C@@H]1O[C@H](CSCC[C@H](N)C(=O)O)[C@@H](O)[C@H]1O [S-(N^6 -methyladenosyl)-L-homocysteine]
- inhibition [5]: 85%
- potency relative to SAH (RNA methyltransferase): nearly as potent an RNA methyltransferase inhibitor as SAH

Compound: polyinosinate
- multiplication of M. leprae (Mycobacterium leprae): inhibit multiplication of Mycobacterium leprae
- combination with adenine and adenosine [6]: particularly effective in combination with adenine and adenosine
- inhibition of tRNA and rRNA methylases [6]: inhibits transfer and ribosomal RNA (tRNA and rRNA) methylases
- inhibition by base ([6]; methylases of individual bases): inhibition of adenine methylases occurred to the greatest extent and guanine methylases to the least

Compound: CC(C)CSC[C@H]1O[C@@H](n2cnc3c(N)ncnc32)[C@H](O)[C@@H]1O [SIBA, 5'-deoxy-5'-S-isobutyl-adenosine]
- inhibition [7]: 55%
- inhibition of RNA methylation (RNA methylation; 1 mM): ~ 65%
- inhibition of methylation in whole cells (RNA methylation): strongly inhibit methylation in whole cells
- methylation of eukaryotic mRNA (RNA methylation; especially that of the 5' cap): inhibits the methylation of eukaryotic mRNA
- potency as inhibitor [8]: most potent

Compound: NC(=O)c1cccnc1 [Nicotinamide]
- LD50 [9]: 1680 mg/kg
- inhibition of tRNA methyltransferase [10]: inhibition of porcine liver tRNA methyltransferase activity

Compound: Nc1ncnc2c1ccn2[C@@H]1O[C@H](CSCCC(N)C(=O)O)[C@@H](O)[C@H]1O (stereo partly shown) [STH, S-Tubercidinylhomocysteine]
- inhibition of poly(A)-RNA methylation (poly(A)-RNA methylation): Inhibition of cytoplasmic methylation
- membrane permeation [11]: able to permeate cell membranes
- susceptibility to nucleosidase [12]: not susceptible to the nucleosidase enzymes
- inhibition of tRNA methylases relative to SAH (tRNA methylases): retains the inhibitory potency of SAH on tRNA methylases
- inhibition [13]: particularly potent inhibitor

Compound: Nc1ncnc2c1ccn2[C@@H]1O[C@H](CO)[C@@H](O)[C@H]1O [Tubercidin, 7-deazaadenosine]
- rRNA processing (rRNA processing): inhibits rRNA processing in addition to methylation of tRNA and protein and nucleic acid synthesis
- LD50 [14]: 45 mg/kg
- inhibition of E. coli tRNA methylases [15]: inhibitory to tRNA methylases isolated from E. coli
- formation of mature rRNA [16]: inhibit the formation of mature 28S and 18
- SAH hydrolase inhibition (SAH hydrolase): inhibits SAHH

Compound: CO/C=C\[C@H](N)C(=O)O (stereo in doubt) [L-cis-AMB, L-2-amino-4-methoxy-cis-but-3-enoic acid]
- depletion of SAM (SAM pools in L1210 cells; 1 mM, cultured L1210 cells): rapid and near-total depletion of SAM by 4 hours
- SAM pools in intact cells (SAM pools in L1210 cells; intact cells): rapidly depleting SAM pools in intact cells without affecting precursor incorporation into macromolecules
- SAM synthetase inhibition (SAM synthetase): most potent methionine-analogue inhibitor of SAM synthetase at that time
- IC50, fold lower than that of cycloleucine (L1210 cells [17]): about 10 fold
- IC50 (L1210 cells [18]): 400 µM

Compound: Nc1ncnc2c1ncn2[C@@H]1C[C@H](O)[C@@H](O)[C@H]1O (relative stereo) [(±)-5-Noraristeromycin]
- times less cytotoxic (cell culture): 10 to 20 times
- SAH hydrolase inhibition (SAH hydrolase): inhibitors of SAHH

Compound: Nc1ncnc2c1ncn2[C@@H]1O[C@H](CSCC[C@H](N)C(=O)O)[C@@H](O)[C@H]1O [S-Adenosylhomocysteine, S-adenosylhomocysteine]
- inhibition [7]: 97%
- uptake and excretion [19]: not taken up and excreted unchanged in urine
- inhibition (methyl transfer from SAM): effective inhibitors

Compound: Nc1ncnc2c1ncn2[C@@H]1C=C(CO)[C@@H](O)[C@H]1O [NPA, neplanocin A]
- IC50 (malarial growth): 3 µM
- inhibition of plaque formation (vaccinia virus; 0.5 μM): 84%
- inhibition of plaque formation (vaccinia virus; 1 μM): 95%
- toxicity to the host cells (vaccinia virus; 0.5 and 1 μM): little toxicity to the host cells
- minimum inhibitor concentration (50% reduction of cytopathogenicity) [20]: 0.018 µg/mL
- effective inhibitory concentration (human retrovirus): ~0.2 µg/mL
- Ki (SAH hydrolase; De Clercq & Cools (1985)): 0.002 µM
- SAH hydrolase inhibition (SAH hydrolase): potent inhibitor of SAH hydrolase

Compound: NC1(C(=O)O)CCCC1 [cycloleucine, 1-aminocyclopentane-1-carboxylic acid]
- growth inhibiting effects (rat leukemia (BNML)): synergistic growth inhibiting effects
- improved killing, increase over control ([3]; 0.1M in Brain Heart Infusion Agar (FIG. 3)): 240%
- increase in the size of the clear zone ([3]; inhibitor pre-mixed with BHIA or TSA, with erythromycin (FIG. 3)): increase in the size of the clear zone
- decrease in internal m^6 A [21]: > 30%
- SAM synthetase inhibition (SAM synthetase): inhibitor of SAM synthetase
- IC50 (L1210 cells [18]): 5000 µM
- inhibition [22]: effective inhibitors
- increase in the size of the clear zone [23]: increase in the size of the clear zone

Compound: CCCCS(=N)(=O)CCC(N)C(=O)O (stereo not shown) [buthionine sulfoximine, CH3 (CH2)2 S (O)(=NH)CH2 CH2 CH(NH2)COOH]
- depletion of glutathione (glutathione): depleted liver and aortic glutathione
- SAM-synthetase activity, % of untreated animals (SAM-synthetase): about 40%

Compound: Nc1ncnc2c1ncn2[C@@H]1O[C@H]([C@H](CSCC[C@H](N)C(=O)O)OP(=O)(O)OP(=O)(O)NP(=O)(O)O)[C@@H](O)[C@H]1O [5'(R)-(C)-[(L-homocysteine-S-yl)methyl]adenosine 5'-(β,γ-imidotriphosphate)]
- inhibition [24]: most effective inhibitor
- inhibition [25]: most effective inhibitor

Compound: CC(O)C1=C[C@@H](n2cnc3c(N)ncnc32)[C@H](O)[C@@H]1O (stereo partly shown) [6'-C-methylneplanocin A]
- SAHH inhibition (murine L929 SAHH): good inhibitor of murine L929 SAHH
- resistance to adenosine deaminase (adenosine deaminase): virtually resistant to adenosine deaminase
- antiviral potency and selectivity vs neplanocin A (viruses): surpassing neplanocin A both in antiviral potency and selectivity
